Reference: patent US8877185B2, “Managing and treating keloids” (priority 2012, dated 2014)

Test system: keloid
Test: Irritation at the keloid site following application of capsaicin
Format: in vivo, human
Conditions: topical, rubbed on the keloid; Capzasin HP 0.1% capsaicin
From the text: In an embodiment, a method of treating or managing a keloid includes firstly removing flurandrenolide tape (or CORDRAN® (flurandrenolide) tape) by peeling it off the keloid and secondly, cleaning the keloid with water and soap, and then drying the keloid with a cloth or a paper towel. After the keloid is dried, graphites ointment is applied in a manner that includes completely or partially covering the keloid with the graphites ointment. Graphites 6C ointment is available in the open market, for example, sold on the interne by a number of companies such as Pomade, Nelson, Boiron, or SBL. […] In an aspect of the method of treatment, witch hazel ointment is applied to the keloid evenly on the keloid either separately or together with graphites. Witch hazel (Hamamelis virginiana) is available in the open market as a cream, lotion ointment or liquid. […] The Hamamelis ointment is allowed to be absorbed by the keloid. In an embodiment, capsaicin cream or ointment is applied to the keloid. Capsaicin, 8-Methyl-N-vanillyl-trans-6-nonenamide) (CH3)2CHCH═CH(CH2)4CONHCH2C6H3-4-(OH)-3—(OCH3)) is the active composition or mixture of chili peppers, which are plants belonging to the genus Capsicum. Capsaicin may be obtained over-the-counter as for example, Capzasin HP 0.1% capsaicin (brand name CHATTEM Registered Trade mark, by Chattem Inc., TN). […]

COc1cc(CNC(=O)CCCC/C=C/C(C)C)ccc1O [Capsaicin, 8-Methyl-N-vanillyl-trans-6-nonenamide]
Period of intense irritation or pain at the site of the keloid following application: about 30 minutes
